Results taken from PMC10582335 (Frontiers in Pharmacology, 2023).

Columns and labels:
Abcg2 mRNA (BCRP) = experiment: qRT-PCR of mRNA expression in rat tissues after multiple-dose almonertinib; type: in vivo; conditions: intestine, rats given almonertinib for nine consecutive days, n = 3
Experimental: (§1) Sixty healthy rats were randomly divided into ten groups (n = 6). […] Blood samples were centrifuged at 3,500 g for 10 min, and then the supernatant was gathered and stored in a −80°C refrigerator. After, rat intestine, kidney and liver tissues were harvested for molecular analysis on the ninth or fifth day after treatment with the corresponding drugs for each group. The tissues were placed immediately at −80°C.
(§2) qRT-PCR analysis was used to determine mRNA levels of Abcb1a, Abcg2 and Cyp3a1 in the liver and intestines, and Abcb1a and Abcg2 in the kidney of rats. Total RNA was isolated from frozen liver, intestine and kidney samples using TRNzol Universal according to the manufacturer’s instructions. A Bio Tek Epoch (Bio Tek Instruments, Inc., Winooski, VT, United States) was employed to quantify the purity and concentration of the total RNA based on the ratio of the absorbance between 260 and 280 nm. RNA samples of 1 µg were transformed to complementary DNA (cDNA) using the FastKing RT Kit. The real-time PCR assays were accomplished using a two-step amplification method based on the recommendations in a SLAN-96S Real-Time PCR system (Shanghai Hongshi Medical Technology Co., Ltd. Shanghai, China). […] was used as an internal control, and the PCR cycling criteria were as follows: 95°C for 15 min, then 40 cycles of 95°C for 10, and 60°C for 32 s.

Cyp3a1 mRNA (CYP3A4) = experiment: as above; type: in vivo; conditions: rats given almonertinib for nine consecutive days, n = 3
Experimental: as §1, §2

C=CC(=O)Nc1cc(Nc2nccc(-c3cn(C4CC4)c4ccccc34)n2)c(OC)cc1N(C)CCN(C)C [almonertinib, Almonertinib]
inhibition of mRNA expression of Abcg2 (Abcg2 mRNA (BCRP)): 28.0%
inhibition of mRNA expression of Cyp3a1 (Cyp3a1 mRNA (CYP3A4); intestine): 96.9%
inhibition of mRNA expression of Cyp3a1 (Cyp3a1 mRNA (CYP3A4); liver): 45.5%
